The NIST ThermoML archive (doi:10.1021/je2003012)

Assay: relative permittivity at various frequencies (dimensionless); wn = mass fraction of the nth substance listed
Settings: Liquid, direct capacitance:P =

O=C=O [carbon dioxide] + CCO
Settings	relative permittivity
303.4 K, 10000 kPa, w2 = 0.05	1.83
303.4 K, 11400 kPa, w2 = 0.05	1.86
303.4 K, 13200 kPa, w2 = 0.05	1.89
303.4 K, 13600 kPa, w2 = 0.05	1.9
303.4 K, 14800 kPa, w2 = 0.05	1.91
303.4 K, 15300 kPa, w2 = 0.05	1.92
303.4 K, 15800 kPa, w2 = 0.05	1.92
303.4 K, 16000 kPa, w2 = 0.05	1.93
303.4 K, 17500 kPa, w2 = 0.05	1.94
303.4 K, 19000 kPa, w2 = 0.05	1.95
303.4 K, 19200 kPa, w2 = 0.05	1.95
303.4 K, 21000 kPa, w2 = 0.05	1.97
303.4 K, 21300 kPa, w2 = 0.05	1.97
303.4 K, 23000 kPa, w2 = 0.05	1.98
303.4 K, 23300 kPa, w2 = 0.05	1.99
303.4 K, 25100 kPa, w2 = 0.05	2
303.4 K, 25400 kPa, w2 = 0.05	2
303.4 K, 26700 kPa, w2 = 0.05	2.01
303.4 K, 27200 kPa, w2 = 0.05	2.01
303.4 K, 28900 kPa, w2 = 0.05	2.02
303.4 K, 29600 kPa, w2 = 0.05	2.03
303.7 K, 7200 kPa, w2 = 0.212	3.15
303.7 K, 7900 kPa, w2 = 0.212	3.18
303.7 K, 8800 kPa, w2 = 0.212	3.22
303.7 K, 9800 kPa, w2 = 0.1	2.24
303.7 K, 9800 kPa, w2 = 0.212	3.25
303.7 K, 11000 kPa, w2 = 0.212	3.29
303.7 K, 11300 kPa, w2 = 0.1	2.27
303.7 K, 11400 kPa, w2 = 0.1	2.28
303.7 K, 13000 kPa, w2 = 0.212	3.35
303.7 K, 13100 kPa, w2 = 0.1	2.3
303.7 K, 14000 kPa, w2 = 0.1	2.32
303.7 K, 14900 kPa, w2 = 0.1	2.34
303.7 K, 14900 kPa, w2 = 0.212	3.4
303.7 K, 15000 kPa, w2 = 0.212	3.4
303.7 K, 16000 kPa, w2 = 0.1	2.36
303.7 K, 16500 kPa, w2 = 0.212	3.44
303.7 K, 16700 kPa, w2 = 0.212	3.45
303.7 K, 16900 kPa, w2 = 0.1	2.37
303.7 K, 17300 kPa, w2 = 0.212	3.46
303.7 K, 17800 kPa, w2 = 0.1	2.38
303.7 K, 18000 kPa, w2 = 0.212	3.47
303.7 K, 18800 kPa, w2 = 0.212	3.49
303.7 K, 19100 kPa, w2 = 0.1	2.4
303.7 K, 19900 kPa, w2 = 0.1	2.41
303.7 K, 20200 kPa, w2 = 0.212	3.52
303.7 K, 20400 kPa, w2 = 0.1	2.42
303.7 K, 21400 kPa, w2 = 0.1	2.43
303.7 K, 21600 kPa, w2 = 0.212	3.54
303.7 K, 21800 kPa, w2 = 0.212	3.55
303.7 K, 21900 kPa, w2 = 0.1	2.43
303.7 K, 23100 kPa, w2 = 0.1	2.45
303.7 K, 23300 kPa, w2 = 0.212	3.57
303.7 K, 23900 kPa, w2 = 0.212	3.58
303.7 K, 24100 kPa, w2 = 0.1	2.46
303.7 K, 24200 kPa, w2 = 0.1	2.46
303.7 K, 25300 kPa, w2 = 0.1	2.47
303.7 K, 25400 kPa, w2 = 0.212	3.61
303.7 K, 25500 kPa, w2 = 0.1	2.48
303.7 K, 26200 kPa, w2 = 0.212	3.62
303.7 K, 26500 kPa, w2 = 0.1	2.48
303.7 K, 27200 kPa, w2 = 0.212	3.64
303.7 K, 27400 kPa, w2 = 0.1	2.49
303.7 K, 28000 kPa, w2 = 0.1	2.5
303.7 K, 28400 kPa, w2 = 0.1	2.5
303.7 K, 28400 kPa, w2 = 0.212	3.66
303.7 K, 29400 kPa, w2 = 0.1	2.51
303.7 K, 30200 kPa, w2 = 0.212	3.68
304.9 K, 16100 kPa, w2 = 0.152	2.67
304.9 K, 16800 kPa, w2 = 0.152	2.68
304.9 K, 17300 kPa, w2 = 0.152	2.68
304.9 K, 17800 kPa, w2 = 0.152	2.69
304.9 K, 18800 kPa, w2 = 0.152	2.7
304.9 K, 19400 kPa, w2 = 0.152	2.72
304.9 K, 20100 kPa, w2 = 0.152	2.73
304.9 K, 20800 kPa, w2 = 0.152	2.74
304.9 K, 21900 kPa, w2 = 0.152	2.75
304.9 K, 22800 kPa, w2 = 0.152	2.76
304.9 K, 23700 kPa, w2 = 0.152	2.77
304.9 K, 24300 kPa, w2 = 0.152	2.79
304.9 K, 24700 kPa, w2 = 0.152	2.78
304.9 K, 25500 kPa, w2 = 0.152	2.79
304.9 K, 26400 kPa, w2 = 0.152	2.81
304.9 K, 26500 kPa, w2 = 0.152	2.81
304.9 K, 27200 kPa, w2 = 0.152	2.82
304.9 K, 28200 kPa, w2 = 0.152	2.83
304.9 K, 29100 kPa, w2 = 0.152	2.84
